From the NIST ThermoML archive (doi:10.1016/j.jct.2009.05.001)

Test: xn = mol fraction of the nth substance listed
Conditions: 101 kPa, Liquid; for speed of sound: Sing-around technique in a fixed-path interferometer; for mass density: Vibrating tube method

CCCCCCO [hexan-1-ol] + ClC(Cl)C(Cl)Cl
x2 = 0
Conditions	mass density [kg/m3]	speed of sound [m/s]
308.15 K	808.056	1270.2
313.15 K	804.397	1253.6

BrCCBr [1,2-dibromoethane] + CCCCCCO
Conditions	mass density, 308.15 K [kg/m3]	mass density, 313.15 K [kg/m3]	speed of sound, 308.15 K [m/s]	speed of sound, 313.15 K [m/s]
x1 = 0.0402	845.2	841.335	1246.8	1230.7
x1 = 0.0682	871.58	867.573	1231.5	1215.3
x1 = 0.1276	929.152	924.828	1200.8	1184.8
x1 = 0.2056	1008.3	1003.54	1163.8	1148.2
x1 = 0.2686	1075.32	1070.19	1136.5	1121.2
x1 = 0.3892	1211.59	1205.72	1090.4	1075.6
x1 = 0.4277	1258.28	1252.15	1077	1062.5
x1 = 0.5444	1406.53	1399.6	1041.2	1027.1
x1 = 0.6405	1539.27	1531.62	1016.5	1003
x1 = 0.7326	1676.75	1668.38	996.88	983.86
x1 = 0.8519	1871.88	1862.55	978.58	966.15
x1 = 0.9273	2006.87	1996.95	971.93	959.29
x1 = 0.9587	2066.14	2055.98	970.13	957.92
x1 = 0.9782	2104.45	2094.14	969.05	956.68
x1 = 1	2148.2	2137.69	968.69	956.08

CCCCCCO [hexan-1-ol] + BrCCBr
x2 = 0
Conditions	mass density [kg/m3]	speed of sound [m/s]
308.15 K	808.056	1270.2
313.15 K	804.397	1253.6

ClCCCl [1,2-dichloroethane] + CCCCCCO
Conditions	mass density, 308.15 K [kg/m3]	mass density, 313.15 K [kg/m3]	speed of sound, 308.15 K [m/s]	speed of sound, 313.15 K [m/s]
x1 = 0.037	817.675	813.926	1262.4	1246.1
x1 = 0.0769	828.456	824.595	1254.6	1238.5
x1 = 0.1499	848.617	844.565	1240.1	1223.2
x1 = 0.2147	867.202	863.005	1226.8	1210.1
x1 = 0.2935	891.704	887.346	1212.5	1195.8
x1 = 0.3952	926.131	921.594	1195.1	1177.8
x1 = 0.4532	947.081	942.428	1185.4	1167.5
x1 = 0.5596	988.685	983.815	1169.3	1151.5
x1 = 0.6113	1010.54	1005.54	1162	1144.6
x1 = 0.6971	1049.83	1044.5	1153.5	1135.8
x1 = 0.7791	1091.94	1086.13	1148.8	1131.2
x1 = 0.8563	1135.2	1128.8	1148	1129
x1 = 0.9335	1184.46	1177.4	1151.1	1128.9
x1 = 0.979	1215.34	1207.97	1152.8	1132.9
x1 = 1	1230.88	1223.41	1155.3	1136.2

ClC(Cl)C(Cl)Cl [1,1,2,2-tetrachloroethane] + CCCCCCO
Conditions	mass density, 308.15 K [kg/m3]	mass density, 313.15 K [kg/m3]	speed of sound, 308.15 K [m/s]	speed of sound, 313.15 K [m/s]
x1 = 0.0688	853.014	849.095	1241.8	1225.3
x1 = 0.123	889.246	885.104	1220.7	1204.1
x1 = 0.2457	973.918	969.244	1176.4	1160
x1 = 0.3618	1057.58	1052.37	1138.6	1122.3
x1 = 0.4502	1123.79	1118.17	1112.2	1096
x1 = 0.5583	1208.04	1201.9	1082.7	1066.7
x1 = 0.6518	1283.92	1277.31	1060	1044.2
x1 = 0.7068	1329.98	1323.07	1047.9	1032.3
x1 = 0.7419	1360.06	1352.96	1040.7	1025.1
x1 = 0.7797	1392.95	1385.63	1033.5	1018
x1 = 0.8315	1438.91	1431.3	1024.4	1009.1
x1 = 0.8718	1475.7	1467.85	1018	1002.8
x1 = 0.9179	1518.39	1510.31	1012.1	997.14
x1 = 0.9504	1549.36	1541.12	1009.1	994.34
x1 = 1	1597.75	1589.36	1008.9	994.15

CCCCCCO [hexan-1-ol] + ClCCCl
x2 = 0
Conditions	mass density [kg/m3]	speed of sound [m/s]
308.15 K	808.056	1270.2
313.15 K	804.397	1253.6
